Results on 16 molecules are retold here after patent US20110098352A1, “N,N-DISUBSTITUTED AMINOALKYLBIPHENYL ANTAGONISTS OF PROSTAGLANDIN D2 RECEPTORS” (AMIRA PHARMACEUTICALS, INC., priority 2008, published 2011).

The target of one assay is T1, human DP2 receptor (Homo sapiens, UniProt Q9Y5Y4).
T1 construct: expressed in transfected cells
T1 sequence (Q9Y5Y4 1-395): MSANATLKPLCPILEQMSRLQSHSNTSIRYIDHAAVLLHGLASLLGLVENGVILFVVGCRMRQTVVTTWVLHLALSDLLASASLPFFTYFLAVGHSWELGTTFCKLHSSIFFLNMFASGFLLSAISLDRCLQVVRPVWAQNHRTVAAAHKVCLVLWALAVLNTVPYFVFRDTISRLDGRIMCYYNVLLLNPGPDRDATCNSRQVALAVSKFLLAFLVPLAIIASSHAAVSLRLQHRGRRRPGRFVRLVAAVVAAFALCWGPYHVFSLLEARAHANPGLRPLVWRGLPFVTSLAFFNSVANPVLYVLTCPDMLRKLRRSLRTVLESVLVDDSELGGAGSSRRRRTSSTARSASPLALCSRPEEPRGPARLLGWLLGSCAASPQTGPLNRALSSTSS
Description: DP2/CRTH2 radioligand binding assay using [3H]PGD2. Conditions: [3H]PGD2 binding, membranes of HEK293 cells expressing recombinant human DP2; read-out: hDP2. The procedure: The ability of a compound to bind to the human DP2 receptor is assessed via a radioligand binding assay using [^3H]PGD2. HEK293 cells stably expressing recombinant human DP2 are resuspended in 10 mM Hepes, 7.4 containing 1 mM DTT, lysed and centrifuged at 75,000×g to pellet the membranes. The membranes are resuspended in 10 mM Hepes, 7.4 containing 1 mM DTT and 10% glycerol to approximately 5 mg protein/ml. Membranes (2-10 μg protein/well) are incubated in 96-well plates with 1 nM [^3H]PGD2 and test compound in Assay Buffer (50 mM Hepes, 10 mM MnCl2, 1 mM EDTA, plus or minus 0.2% human serum albumin, pH 7.4) for 60 minutes at room temperature. The reactions are terminated by rapid filtration through Whatman GF/C glass fibre filter plates. The filter plates were pre-soaked in 0.33% polythylenimine for 30 minutes at room temperature then washed in Wash Buffer (50 mM Hepes, 0.5 M NaCl pH 7.4) prior to harvesting. After harvesting, the filter plates are washed 3 times with 1 ml cold Wash Buffer then dried. Scintillant is then added to the plates and the radioactivity retained on the filters is determined on a Packard TopCount (Perkin Elmer). Specific binding is determined as total radioactive binding minus non-specific binding in the presence of 10 μM PGD2. IC50s were determined using GraphPad prism analysis of drug titration curves.

For another assay, the target named is T2, human DP1 receptor (Homo sapiens, UniProt Q13258).
T2 construct: tissue Biological Specialty Corporation; host or cells: human platelets, membranes
T2 sequence (Q13258 1-359): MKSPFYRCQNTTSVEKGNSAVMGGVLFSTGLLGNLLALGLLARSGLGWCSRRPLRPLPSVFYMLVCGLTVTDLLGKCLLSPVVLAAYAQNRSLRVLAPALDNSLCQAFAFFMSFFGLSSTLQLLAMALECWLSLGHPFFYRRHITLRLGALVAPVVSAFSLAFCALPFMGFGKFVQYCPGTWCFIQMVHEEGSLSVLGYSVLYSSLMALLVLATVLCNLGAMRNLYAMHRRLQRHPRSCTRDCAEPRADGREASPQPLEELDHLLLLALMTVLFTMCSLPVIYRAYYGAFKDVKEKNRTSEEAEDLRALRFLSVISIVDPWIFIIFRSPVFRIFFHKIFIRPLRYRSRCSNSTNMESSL
In words: DP1 radioligand membrane binding assay using [3H]BWA868C. To be noted: [3H]BWA868C binding, human platelet membranes; read-out: hDP1. The procedure:
The ability of a compound to bind to the human DP1 receptor was evaluated via a radioligand membrane binding assay using the DP1 selective synthetic ligand [^3H]BWA868C. Packed human platelets (Biological Specialty Corporation), were resuspended in 6 volumes of Hepes/HBSS buffer (10 mM Hepes, 1 mM DTT in Hanks Balanced Salt Solution (HBSS)), lysed and centrifuged at 75,000×g to pellet the membranes. Membranes were resuspended in Hepes/HBSS buffer to approximately 12 mg protein/ml. Membranes (20 μg protein/well) are incubated in 96-well plates with 2 nM [^3H]BWA868C and test compound in Assay Buffer (50 mM Hepes, 10 mM MnCl2, 1 mM EDTA, plus or minus 0.2% human serum albumin, pH 7.4) for 60 minutes at room temperature. The reactions are terminated by rapid filtration through Whatman GF/C glass fibre filter plates. The filter plates were pre-soaked in […] polethylenimine for 30 minutes at room temperature then washed in Wash Buffer (50 mM Hepes, 0.5 M NaCl pH 7.4) prior to harvesting. After harvesting, the filter plates are washed 3 times with 1 ml cold Wash Buffer then dried. Scintillant is then added to the plates and the radioactivity retained on the filters is determined on a Packard TopCount (Perkin Elmer). Specific binding is determined as total radioactive binding minus non-specific binding in the presence of 10 μM BWA868C. IC50s were determined using GraphPad prism analysis of drug titration curves.

Assay [1] deals with T3, recombinant human CRTH2 receptor (Homo sapiens, UniProt Q9Y5Y4).
T3 construct: expressed in transfected cells
T3 sequence (Q9Y5Y4 1-395): T1 sequence (Q9Y5Y4 1-395)
Description: GTPγS binding assay. In kind it is biochemical. Conditions: +HSA; CHO cell membranes, 80 nM PGD2; read-out: hDP2 GTPγS μM (+HSA). As to the method: The ability of a compound to inhibit binding of GTP to DP2 is assessed via a membrane GTPγS assay. CHO cells stably expressing the recombinant human CRTH2 receptor are resuspended in 10 mM Hepes, 7.4 containing 1 mM DTT, lysed and centrifuged at 75,000×g to pellet the membranes. The membranes are resuspended in 10 mM Hepes, 7.4 containing 1 mM DTT and 10% glycerol. […] The reactions are terminated by rapid filtration through Whatman GF/B glass fibre filter plates. The filter plates are washed 3 times with 1 ml cold Assay Buffer and dried. Scintillant is then added to the plates and the radioactivity retained on the filters is determined on a Packard TopCount (Perkin Elmer). Specific binding is determined as total radioactive binding minus non-specific binding in the absence of the ligand (80 nM PGD2). IC50s were determined using Graphpad prism analysis of drug titration curves.

The structures appear in SMILES notation. A value given as a limit tells only on which side of the number the result lay.

As to `CCN(Cc1cc(C(F)(F)F)ccc1-c1cc(CC(=O)O)ccc1F)C(C)=O` [Compound 1-10, {2′-[(Acetyl-ethyl-amino)-methyl]-6-fluoro-4′-trifluoromethyl-biphenyl-3-yl}-acetic acid], the IC50 is below 300 nM on human DP2 receptor, above 1000 nM on human DP1 receptor and below 0.3 µM in assay [1].

Regarding `CC(=O)N(Cc1cc(C(F)(F)F)ccc1-c1cc(CC(=O)O)ccc1F)CC(F)(F)F` [Compound 1-11, (2′-{[Acetyl-(2,2,2-trifluoro-ethyl)-amino]-methyl}-6-fluoro-4′-trifluoromethyl-biphenyl-3-yl)-acetic acid], the IC50 at human DP2 receptor is below 300 nM; on human DP1 receptor, above 1000 nM; in assay [1], below 0.3 µM.

On to `COc1ccc(CC(=O)O)cc1-c1ccc(C(F)(F)F)cc1CN(C(C)=O)C1CC1` [Compound 1-12, {2′-[(Acetyl-cyclopropyl-amino)-methyl]-6-methoxy-4′-trifluoromethyl-biphenyl-3-yl}-acetic acid], for which the IC50 at human DP2 receptor is below 300 nM; on human DP1 receptor it was above 1000 nM; in assay [1], below 0.3 µM.

For the molecule `CCN(Cc1cc(C(F)(F)F)ccc1-c1cc(CC(=O)O)ccc1OC)C(=O)OC` [Compound 1-23, {2′-[(Ethyl-methoxycarbonyl-amino)-methyl]-6-methoxy-4′-trifluoromethyl-biphenyl-3-yl}-acetic acid], the values for the IC50 (on human DP2 receptor; at human DP1 receptor; in assay [1]) were below 300 nM, above 1000 nM and below 0.3 µM, respectively.

For `COc1ccc(CC(=O)O)cc1-c1ccc(C(F)(F)F)cc1CN(C)C(=O)OCc1ccccc1` [Compound 1-27, {2′-[(Benzyloxycarbonyl-methyl-amino)-methyl]-6-methoxy-4′-trifluoromethyl-biphenyl-3-yl)-acetic acid], the IC50 at human DP2 receptor was below 300 nM; on human DP1 receptor, above 1000 nM; in assay [1] it was below 0.3 µM.

On to `CN(Cc1cc(C(F)(F)F)ccc1-c1cc(CC(=O)O)ccc1F)C(=O)OCc1ccccc1` [Compound 1-29, {2′-[(Benzyloxycarbonyl-methyl-amino)-methyl]-6-fluoro-4′-trifluoromethyl-biphenyl-3-yl}-acetic acid], for which the IC50 on human DP2 receptor was below 300 nM; at human DP1 receptor it was above 1000 nM; in assay [1], below 0.3 µM.

In the case of `COc1ccc(CC(=O)O)cc1-c1ccc(C(F)(F)F)cc1CN(C(C)=O)C1CCC1` [Compound 1-30, {2′-[(Acetyl-cyclobutyl-amino)-methyl]-6-methoxy-4′-trifluoromethyl-biphenyl-3-yl}-acetic acid], the IC50 on human DP2 receptor was below 300 nM; at human DP1 receptor it was above 1000 nM; in assay [1] it was below 0.3 µM.

On to `COc1ccc(CC(=O)O)cc1-c1ccc(C(F)(F)F)cc1CN(C(C)=O)C1CCCC1` [Compound 1-31, {2′-[(Acetyl-cyclopentyl-amino)-methyl]-6-methoxy-4′-trifluoromethyl-biphenyl-3-yl}-acetic acid], for which the IC50 on human DP2 receptor was below 300 nM; on human DP1 receptor, above 1000 nM; in assay [1], below 0.3 µM.

On to `CCN(Cc1cc(C(F)(F)F)ccc1-c1cc(CC(=O)O)ccc1OC)C(=O)C(F)(F)F` [Compound 1-32, (2′-{[Ethyl-(2,2,2-trifluoro-acetyl)-amino]-methyl}-6-methoxy-4′-trifluoromethyl-biphenyl-3-yl)-acetic acid], for which the IC50 is below 300 nM at human DP2 receptor, above 1000 nM at human DP1 receptor and below 0.3 µM in assay [1].

Turning to `COc1ccc(CC(=O)O)cc1-c1ccc(C(F)(F)F)cc1CN(C(=O)OCc1ccccc1)C1CCCC1` [Compound 1-35, {2′-[(Benzyloxycarbonyl-cyclopentyl-amino)-methyl]-6-methoxy-4′-trifluoromethyl-biphenyl-3-yl}-acetic acid], the IC50 on human DP2 receptor was below 300 nM; on human DP1 receptor, 300 to 1000 nM; in assay [1], below 0.3 µM.

Turning to `CCN(Cc1cc(C(F)(F)F)ccc1-c1cc(CC(=O)O)ccc1OC)C(=O)OCc1ccccc1Cl` [Compound 1-39, (2′-{[(2-Chloro-benzyloxycarbonyl)-ethyl-amino]-methyl}-6-methoxy-4′-trifluoromethyl-biphenyl-3-yl)-acetic acid], the IC50 at human DP2 receptor is below 300 nM; on human DP1 receptor, above 1000 nM; in assay [1], below 0.3 µM.

As to `CCN(Cc1cc(C(F)(F)F)ccc1-c1cc(CC(=O)O)ccc1OC)C(=O)OCc1cc(F)cc(F)c1` [Compound 1-40, (2′-{[(3,5-Difluoro-benzyloxycarbonyl)-ethyl-amino]-methyl}-6-methoxy-4′-trifluoromethyl-biphenyl-3-yl)-acetic acid], the values for the IC50 (at human DP2 receptor; at human DP1 receptor; in assay [1]) were below 300 nM, above 1000 nM and below 0.3 µM, respectively.

For the molecule `CCN(Cc1cc(C(F)(F)F)ccc1-c1cc(CC(=O)O)ccc1OC)C(=O)OCc1ccc(Cl)cc1` [Compound 1-42, (2′-{[(4-Chloro-benzyloxycarbonyl)-ethyl-amino]-methyl}-6-methoxy-4′-trifluoromethyl-biphenyl-3-yl)-acetic acid], the results for the IC50 (at human DP2 receptor; on human DP1 receptor; in assay [1]) were below 300 nM, above 1000 nM and below 0.3 µM, respectively.

For `CCN(Cc1cc(C(F)(F)F)ccc1-c1cc(CC(=O)O)ccc1OC)C(=O)OCc1cccc(Cl)c1` [Compound 1-43, (2′-{[(3-Chloro-benzyloxycarbonyl)-ethyl-amino]-methyl}-6-methoxy-4′-trifluoromethyl-biphenyl-3-yl)-acetic acid], the IC50 at human DP2 receptor was below 300 nM; at human DP1 receptor, above 1000 nM; in assay [1], below 0.3 µM.

As to `CCN(Cc1cc(C(F)(F)F)ccc1-c1cc(CC(=O)O)ccc1OC)C(=O)OC(C)c1ccc(Cl)cc1` (stereo not drawn) [Compound 1-44, [2′-({[1-(4-Chloro-phenyl)-ethoxycarbonyl]-ethyl-amino)-methyl)-6-methoxy4′-trifluoromethyl-biphenyl-3-yl]-acetic acid], the IC50 on human DP2 receptor is below 300 nM; on human DP1 receptor it was above 1000 nM; in assay [1], below 0.3 µM.

For the molecule `CCN(Cc1cc(C(F)(F)F)ccc1-c1cc(CC(=O)O)ccc1OC)C(=O)C(C)Oc1ccccc1` (stereo not drawn) [Compound 1-45, (2′-{[Ethyl-(2-phenoxy-propionyl)-amino]-methyl}-6-methoxy-4′-trifluoromethyl-biphenyl-3-yl)-acetic acid], the IC50 on human DP2 receptor was below 300 nM; at human DP1 receptor, above 1000 nM; in assay [1], below 0.3 µM.
